Source: PMC7217150, “Synthesis, Modification, and Biological Evaluation of a Library of Novel Water‐Soluble Thiopyridone‐Based Organometallic Complexes and Their Unexpected (Biological) Behavior” (Chemistry (Weinheim an Der Bergstrasse, Germany), 2020)
Read-outs that look alike come from different tables or passages of the source.

Tests used:
A549 [1] = conditions: A549, MTT assay, 96 h; cited from earlier work
SW480 [2] = conditions: SW480, MTT assay, 96 h; cited from earlier work
CH1/PA‐1 [3] = conditions: CH1/PA‐1, MTT assay, 96 h; cited from earlier work
A549 [4] = assay: MTT cytotoxicity assay, monolayer culture; format: cell-based, human; conditions: exposure time 96 h, means ± SDs
CH1/PA‐1 [5] = assay: MTT cytotoxicity assay, monolayer culture; format: cell-based, human; conditions: CH1/PA‐1, MTT assay, exposure time 96 h, means ± SDs
SW480 [6] = assay: MTT cytotoxicity assay, monolayer culture; format: cell-based, human
[7] = pH 7.2
Method: Stock solutions containing the desired complex in DMSO (5 mM) were diluted with phosphate buffer (pH 7.2) to a final concentration of […] compound in 1 % DMSO/20 mM buffer and directly analyzed by four different isocratic UHPLC runs (Δ=5 %). The lipophilicity parameters logkw and lipophilicity indices φ0 were calculated according to literature.7, 37

A549 [8] = conditions: A549 multicellular spheroids, 96 h drug exposure
Method: (§1) A549, CH1/PA‐1 and SW480 cells were grown in MEM supplemented with 10 % fetal calf serum (FCS; from Biowest), 1 mM sodium pyruvate, 4 mM L‐glutamine and 1 % v/v nonessential amino acids (from 100×solution) and L‐glutamine. HCT‐116 cells were maintained in McCoy's 5a medium supplemented with 10 % FCS and L‐glutamine. Adherent monolayer cultures were grown in 75 cm^2 flasks. For spheroid culture, A549, CH1/PA‐1 and HCT‐116 cells were harvested from culture flasks by trypsinization, resuspended in their respective supplemented medium and seeded in ultra‐low attachment round‐bottom 96‐well plates (Corning Costar) at a density of 500 viable cells per well. Plates were incubated for 96 h to allow spheroid formation prior to use for the tests. All cultures were incubated in a humidified incubator at 37 °C with 5 % CO2.
(§2) Cytotoxicity in multicellular spheroids was determined by the fluorimetric resazurin assay. […] After incubation for 96 h, 20 μL of a 440 μM resazurin sodium salt solution in PBS were added to each well, and the plates were incubated for further 16 h. Fluorescence was measured with a Synergy HT reader (BioTek) with an excitation wavelength of 530 nm and emission wavelength of 590 nm. For both assays, at least three independent experiments (or two in case of poor activity) were performed, each with triplicates per concentration level, and the 50 % inhibitory concentrations (IC50) relative to untreated controls were interpolated from concentration‐effect curves.

CH1/PA‐1 [9] = conditions: CH1/PA‐1 multicellular spheroids, 96 h drug exposure
Method: as §1, §2

HCT‐116 = HCT‐116 multicellular spheroids, 96 h drug exposure
Method: as §1, §2

CH1/PA‐1 [10] = assay: Cell cycle distribution, flow cytometry with propidium iodide; format: cell-based, human; conditions: for Cell cycle distribution G1, % / Cell cycle distribution G2/M, % / Cell cycle distribution S, %: 24 h, mean ± SD; for Relative change in cell cycle distribution G1, % / Relative change in cell cycle distribution G2/M, % / Relative change in cell cycle distribution S, %: difference to untreated control; for decrease in G1 phase: CH1/PA‐1 cells
Summary of the method: (§3)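 CH1/PA-1 and SW480 cells were allowed to attach for 24 h, then exposed continuously to compounds for 24 h at 37 °C. Nuclei were stained overnight at 4 °C with propidium iodide (50 μg mL^−1) in Triton/citrate buffer. 5×10^3 cells were analysed by flow cytometry, with G1/S/G2/M fractions fitted by the Watson Pragmatic model.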

SW480 [11] = assay: as above; format: cell-based, human; conditions: for Cell cycle distribution G1, % / Cell cycle distribution G2/M, % / Cell cycle distribution S, %: 24 h, mean ± SD; for Relative change in cell cycle distribution G1, % / Relative change in cell cycle distribution G2/M, % / Relative change in cell cycle distribution S, %: difference to untreated control
Summary of the method: as §3

[12] = tested on: human cancer cell lines CH1/PA‐1, SW480, A549; conditions: tested cancer cell lines
Method: Cytotoxicity of the compounds in monolayer cultures was determined by the colorimetric MTT assay (MTT=3‐(4,5‐dimethyl‐2‐thiazolyl)‐2,5‐diphenyl‐2H‐tetrazolium bromide). 1×10^3 CH1/PA‐1, 2×10^3 SW480 and 3×10^3 A549 cells were seeded in 100 μL supplemented MEM per well into 96‐well flat‐bottom microculture plates. […] After 96 h, the drug‐containing medium was replaced with 100 μL of RPMI 1640/MTT mixture [6 parts of RPMI 1640 medium (supplemented with 10 % heat‐inactivated fetal bovine serum and 4 mM L‐glutamine), 1 part of MTT solution in phosphate‐buffered saline (5 mg mL^−1)]. After incubation for 4 h, the mixture was replaced with 150 μL DMSO per well to dissolve the formazan product formed by viable cells. Optical densities at 550 nm (and at a reference wavelength of 690 nm) were measured with a microplate reader (ELx808, Bio‐Tek).

SMILES: [Cl][Ru-]([Cl])([Cl])[Cl].[Na+].c1ccc2[nH]ncc2c1.c1ccc2[nH]ncc2c1 [BOLD‐100]
- IC50 (A549 [1]): 156 ± 11 µM
- IC50 (SW480 [2]): 62 ± 9 µM
- IC50 (CH1/PA‐1 [3]): 50 ± 6 µM

SMILES: Cc1c([O-])c(=S)ccn1Cc1ccccc1.Cc1ccc(C(C)C)cc1.[Cl-].[Ru+2] [Compound 3 c, Chlorido[1‐benzyl‐2‐methyl‐3‐(oxo‐κO)‐pyridine‐4(1H)‐thionato‐κS](η^6‐p‐cymene)ruthenium(II)]
- IC50 (A549 [4]): 1300 ± 100 nM
- IC50 (CH1/PA‐1 [5]): 1040 ± 30 nM
- IC50 (SW480 [6]; SW480, MTT assay, exposure time 96 h, means ± SDs): 3.1 ± 0.2 µM
- IC50 (SW480 [6]; SW480, as listed in Table 3): 3.06 ± 0.2 µM
- φ0 (chromatographic lipophilicity index) [7]: 6.04
- IC50 (A549 [8]): 287 ± 3 µM
- IC50 (CH1/PA‐1 [9]): 242 ± 11 µM
- IC50 (HCT‐116): 211 ± 28 µM
- Cell cycle distribution G1, % (CH1/PA‐1 [10]; CH1/PA-1, 2.5 µM): 30 ± 1%
- Cell cycle distribution G2/M, % (CH1/PA‐1 [10]; CH1/PA-1, 2.5 µM): 23 ± 6%
- Cell cycle distribution S, % (CH1/PA‐1 [10]; CH1/PA-1, 2.5 µM): 47 ± 8%
- Relative change in cell cycle distribution G1, % (CH1/PA‐1 [10]; CH1/PA-1, 2.5 µM): -10%
- Relative change in cell cycle distribution G2/M, % (CH1/PA‐1 [10]; CH1/PA-1, 2.5 µM): -1%
- Relative change in cell cycle distribution S, % (CH1/PA‐1 [10]; CH1/PA-1, 2.5 µM): 11%
- Cell cycle distribution G1, % (CH1/PA‐1 [10]; CH1/PA-1, 5 µM): 27 ± 3%
- Cell cycle distribution G2/M, % (CH1/PA‐1 [10]; CH1/PA-1, 5 µM): 30 ± 3%
- Cell cycle distribution S, % (CH1/PA‐1 [10]; CH1/PA-1, 5 µM): 43 ± 3%
- Relative change in cell cycle distribution G1, % (CH1/PA‐1 [10]; CH1/PA-1, 5 µM): -13%
- Relative change in cell cycle distribution G2/M, % (CH1/PA‐1 [10]; CH1/PA-1, 5 µM): 6%
- Relative change in cell cycle distribution S, % (CH1/PA‐1 [10]; CH1/PA-1, 5 µM): 7%
- Cell cycle distribution G1, % (CH1/PA‐1 [10]; CH1/PA-1, 10 µM): 24 ± 6%
- Cell cycle distribution G2/M, % (CH1/PA‐1 [10]; CH1/PA-1, 10 µM): 30 ± 7%
- Cell cycle distribution S, % (CH1/PA‐1 [10]; CH1/PA-1, 10 µM): 47 ± 4%
- Relative change in cell cycle distribution G1, % (CH1/PA‐1 [10]; CH1/PA-1, 10 µM): -16%
- Relative change in cell cycle distribution G2/M, % (CH1/PA‐1 [10]; CH1/PA-1, 10 µM): 6%
- Relative change in cell cycle distribution S, % (CH1/PA‐1 [10]; CH1/PA-1, 10 µM): 11%
- decrease in G1 phase (CH1/PA‐1 [10]; 2.5 μM): 10%
- decrease in G1 phase (CH1/PA‐1 [10]; 10 μM): about 16%
- Cell cycle distribution G1, % (SW480 [11]; SW480, 2.5 µM): 45 ± 3%
- Cell cycle distribution G2/M, % (SW480 [11]; SW480, 2.5 µM): 17 ± 4%
- Cell cycle distribution S, % (SW480 [11]; SW480, 2.5 µM): 38 ± 6%
- Relative change in cell cycle distribution G1, % (SW480 [11]; SW480, 2.5 µM): -3%
- Relative change in cell cycle distribution G2/M, % (SW480 [11]; SW480, 2.5 µM): -2%
- Relative change in cell cycle distribution S, % (SW480 [11]; SW480, 2.5 µM): 5%
- Cell cycle distribution G1, % (SW480 [11]; SW480, 5 µM): 44 ± 2%
- Cell cycle distribution G2/M, % (SW480 [11]; SW480, 5 µM): 20 ± 3%
- Cell cycle distribution S, % (SW480 [11]; SW480, 5 µM): 36 ± 0%
- Relative change in cell cycle distribution G1, % (SW480 [11]; SW480, 5 µM): -4%
- Relative change in cell cycle distribution G2/M, % (SW480 [11]; SW480, 5 µM): 1%
- Relative change in cell cycle distribution S, % (SW480 [11]; SW480, 5 µM): 3%
- Cell cycle distribution G1, % (SW480 [11]; SW480, 10 µM): 48 ± 7%
- Cell cycle distribution G2/M, % (SW480 [11]; SW480, 10 µM): 21 ± 4%
- Cell cycle distribution S, % (SW480 [11]; SW480, 10 µM): 32 ± 7%
- Relative change in cell cycle distribution G1, % (SW480 [11]; SW480, 10 µM): 0%
- Relative change in cell cycle distribution G2/M, % (SW480 [11]; SW480, 10 µM): 2%
- Relative change in cell cycle distribution S, % (SW480 [11]; SW480, 10 µM): -1%
- decrease in G1 phase (SW480 [11]; SW480 cells, at applicable concentrations): < 9%
- intracellular accumulation relative to 3 a, in words (SW480 cells): seven times as high
- Cellular accumulation (SW480 cells; ICP‐MS, 2 h exposure, 50 μM): 147±54 fg/cell
- IC50 values, in words [12]: low micromolar range
